Laboratory results: US20080139614A1, “Treatment Of Stroke With Histamine H3 Inverse Agonists Or Histamine H3 Antagonists” (priority 2004, published 2008)

System: harmaline-induced tremor
Assay: harmaline-induced tremor model in rats
Format: in vivo
Excerpt: The identification of a compound as a histamine H3 inverse agonist or a histamine H3 antagonist may be readily determined without undue experimentation by methodology well known in the art. The efficacy of a histamine H3 inverse agonist or a histamine H3 antagonist in treating stroke may be readily determined without undue experimentation by methodology well known in the art, for example the harmaline-induced tremor model in rats, Sinton, et al., Pflugers Archive Eur. J. Phys., 414(1) 31-36 (1989). […] The ability of the histamine H3 inverse agonist or histamine H3 antagonist to be used in the present invention to treat stroke may be determined by these methods.

N#Cc1ccc(-c2cnc(OC3CCN(C4CCCC4)CC3)nc2)cc1 [2-(1-cyclopentylpiperidine-4-yloxy)-5-(4-cyanophenyl)pyrimidine]
reversal of harmaline-induced tremor (dose of 1 mg/kg): 8.4% | reversal of harmaline-induced tremor (dose of 3 mg/kg): 63.3% | reversal of harmaline-induced tremor (dose of 10 mg/kg): 84.4%
